Source: patent publication US11969428B2, “Methods and pharmaceutical compositions for treating lymphoid malignancy” (priority 2011, dated 2024)

Legend:
Experiment in all cases: Ambit KinomeScan screening
Type in all cases: binding
Conditions in all cases: CAL-130 10 μM
ERBB4 = target: T1, ERBB4 (Homo sapiens, UniProt Q15303)
T1 construct: unspecified tag ("tagged kinases"); purchased Ambit (KinomeScan screening service)
Summary of the method: (§1)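 In this 353-kinase competition screen, the compound (CAL-130, 10 μM) competed with an immobilized ligand for each tagged kinase. Percentages of control binding above 35% were treated as no hits.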

IKK-α = target: T2, IKK-α (Homo sapiens, UniProt O15111)
T2 construct: Ambit (KinomeScan screening)
Summary of the method: as §1

CDK11 = target: T3, CDK11 (Homo sapiens, UniProt Q9BWU1)
T3 construct: purchased Ambit (KinomeScan screening)
Summary of the method: as §1

STK36 = target: T4, STK36 (Homo sapiens, UniProt Q9NRP7)
T4 construct: tag (kind not specified); purchased Ambit (KinomeScan screening service)
Summary of the method: as §1

LZK = target: T5, LZK (Homo sapiens, UniProt O43283)
T5 construct: unspecified tag ('tagged kinases'); purchased Ambit (KinomeScan screening service)
T5 sequence (O43283 whole entry): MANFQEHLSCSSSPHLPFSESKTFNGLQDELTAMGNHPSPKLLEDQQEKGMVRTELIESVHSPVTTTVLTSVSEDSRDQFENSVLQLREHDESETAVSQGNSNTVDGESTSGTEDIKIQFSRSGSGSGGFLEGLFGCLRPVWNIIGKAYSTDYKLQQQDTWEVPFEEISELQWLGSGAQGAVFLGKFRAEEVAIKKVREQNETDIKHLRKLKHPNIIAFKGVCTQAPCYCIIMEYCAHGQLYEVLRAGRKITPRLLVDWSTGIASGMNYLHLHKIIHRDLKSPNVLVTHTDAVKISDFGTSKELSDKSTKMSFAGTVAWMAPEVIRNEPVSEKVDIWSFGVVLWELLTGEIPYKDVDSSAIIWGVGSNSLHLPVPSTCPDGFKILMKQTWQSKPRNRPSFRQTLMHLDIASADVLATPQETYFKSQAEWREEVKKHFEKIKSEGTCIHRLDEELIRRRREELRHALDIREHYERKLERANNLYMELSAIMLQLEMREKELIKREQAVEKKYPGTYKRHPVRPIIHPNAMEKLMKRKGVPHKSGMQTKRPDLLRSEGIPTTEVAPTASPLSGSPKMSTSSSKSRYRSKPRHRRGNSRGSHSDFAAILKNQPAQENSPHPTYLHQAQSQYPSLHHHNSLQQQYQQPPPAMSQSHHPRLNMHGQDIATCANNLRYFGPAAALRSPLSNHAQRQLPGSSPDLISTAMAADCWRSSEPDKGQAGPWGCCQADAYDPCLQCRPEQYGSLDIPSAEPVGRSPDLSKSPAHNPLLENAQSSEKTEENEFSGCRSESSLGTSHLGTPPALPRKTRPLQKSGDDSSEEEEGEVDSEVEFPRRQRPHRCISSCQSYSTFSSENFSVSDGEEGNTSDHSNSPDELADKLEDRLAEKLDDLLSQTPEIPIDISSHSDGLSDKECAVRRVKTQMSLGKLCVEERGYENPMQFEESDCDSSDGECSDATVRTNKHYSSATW
Summary of the method: as §1

ADCK4 = target: T6, ADCK4 (Homo sapiens, UniProt Q96D53)
T6 construct: purchased Ambit (KinomeScan screening)
Summary of the method: as §1

ABL1(Q252H) = target: T7, ABL1(Q252H) (Homo sapiens, UniProt P00519, Q252H)
T7 construct: unspecified tag ("tagged kinases"); purchased Ambit (KinomeScan screening)
Summary of the method: as §1

TIE1 = target: T8, TIE1 (Homo sapiens, UniProt P35590)
T8 construct: unspecified tag (tagged kinase); purchased Ambit (KinomeScan screening)
Summary of the method: as §1

PRKG2 = target: T9, PRKG2 (Homo sapiens, UniProt Q13237)
T9 construct: tag (kind not specified); purchased Ambit (KinomeScan screening service)
Summary of the method: as §1

MST4 = target: T10, MST4 (Homo sapiens, UniProt Q9P289)
T10 construct: unspecified tag; purchased Ambit (KinomeScan screening panel)
Summary of the method: as §1

PRKX = target: T11, PRKX (Homo sapiens, UniProt P51817)
T11 construct: tag (kind not specified); purchased Ambit (KinomeScan screening service)
Summary of the method: as §1

RIPK2 = target: T12, RIPK2 (Homo sapiens, UniProt O43353)
T12 construct: unspecified tag (tagged kinase); purchased Ambit (KinomeScan screening)
Summary of the method: as §1

MAP3K4 = target: T13, MAP3K4 (Homo sapiens, UniProt Q9Y6R4)
T13 construct: Ambit (KinomeScan screening)
T13 sequence (Q9Y6R4 whole entry): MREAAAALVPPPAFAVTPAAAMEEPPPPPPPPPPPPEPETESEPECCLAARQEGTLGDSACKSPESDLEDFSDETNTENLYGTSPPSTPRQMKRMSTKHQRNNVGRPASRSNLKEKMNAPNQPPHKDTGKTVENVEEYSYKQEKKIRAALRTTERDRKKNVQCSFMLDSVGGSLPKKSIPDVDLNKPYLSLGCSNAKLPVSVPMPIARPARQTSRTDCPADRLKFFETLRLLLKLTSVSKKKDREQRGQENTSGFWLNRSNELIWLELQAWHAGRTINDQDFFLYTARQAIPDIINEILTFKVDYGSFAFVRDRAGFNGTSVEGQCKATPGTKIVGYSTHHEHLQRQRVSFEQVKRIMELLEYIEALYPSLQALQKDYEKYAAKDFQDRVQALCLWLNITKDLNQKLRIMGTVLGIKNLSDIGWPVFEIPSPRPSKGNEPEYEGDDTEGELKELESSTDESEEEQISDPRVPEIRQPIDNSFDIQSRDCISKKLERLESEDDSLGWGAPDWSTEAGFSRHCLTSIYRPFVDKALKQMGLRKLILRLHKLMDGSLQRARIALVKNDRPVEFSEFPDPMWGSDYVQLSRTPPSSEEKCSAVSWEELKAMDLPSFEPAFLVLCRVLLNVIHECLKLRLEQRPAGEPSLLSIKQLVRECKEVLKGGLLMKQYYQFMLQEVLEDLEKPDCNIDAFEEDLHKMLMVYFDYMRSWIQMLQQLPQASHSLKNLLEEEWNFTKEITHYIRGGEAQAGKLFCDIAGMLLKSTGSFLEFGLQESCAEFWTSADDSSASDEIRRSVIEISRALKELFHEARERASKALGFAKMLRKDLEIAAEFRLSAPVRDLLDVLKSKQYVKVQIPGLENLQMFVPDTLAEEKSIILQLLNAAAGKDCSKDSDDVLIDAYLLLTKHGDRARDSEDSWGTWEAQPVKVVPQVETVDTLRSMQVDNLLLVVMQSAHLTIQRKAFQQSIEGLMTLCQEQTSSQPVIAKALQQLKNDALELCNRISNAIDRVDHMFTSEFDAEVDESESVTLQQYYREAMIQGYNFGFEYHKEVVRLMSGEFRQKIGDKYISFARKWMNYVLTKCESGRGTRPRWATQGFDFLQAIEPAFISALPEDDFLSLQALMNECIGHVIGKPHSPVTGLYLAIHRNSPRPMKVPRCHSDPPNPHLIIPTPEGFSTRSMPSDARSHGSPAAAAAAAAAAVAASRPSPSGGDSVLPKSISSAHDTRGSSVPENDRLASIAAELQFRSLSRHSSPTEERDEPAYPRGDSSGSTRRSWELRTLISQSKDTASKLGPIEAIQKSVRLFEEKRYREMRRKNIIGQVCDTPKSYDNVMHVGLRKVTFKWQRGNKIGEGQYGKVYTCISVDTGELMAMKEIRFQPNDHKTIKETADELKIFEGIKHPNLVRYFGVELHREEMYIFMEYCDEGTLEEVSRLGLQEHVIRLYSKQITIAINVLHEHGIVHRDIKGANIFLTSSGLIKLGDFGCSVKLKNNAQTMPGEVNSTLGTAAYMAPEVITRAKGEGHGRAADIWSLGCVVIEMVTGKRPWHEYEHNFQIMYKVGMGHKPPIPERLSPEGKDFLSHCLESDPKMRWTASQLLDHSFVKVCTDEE
Summary of the method: as §1

SIK2 = target: T14, SIK2 (Homo sapiens, UniProt Q9H0K1)
T14 construct: tag, kind not specified; purchased Ambit (KinomeScan screening service)
Summary of the method: as §1

CAMK2G = target: T15, CAMK2G (Homo sapiens, UniProt Q13555)
T15 construct: purchased Ambit (KinomeScan screening)
T15 sequence (Q13555 whole entry): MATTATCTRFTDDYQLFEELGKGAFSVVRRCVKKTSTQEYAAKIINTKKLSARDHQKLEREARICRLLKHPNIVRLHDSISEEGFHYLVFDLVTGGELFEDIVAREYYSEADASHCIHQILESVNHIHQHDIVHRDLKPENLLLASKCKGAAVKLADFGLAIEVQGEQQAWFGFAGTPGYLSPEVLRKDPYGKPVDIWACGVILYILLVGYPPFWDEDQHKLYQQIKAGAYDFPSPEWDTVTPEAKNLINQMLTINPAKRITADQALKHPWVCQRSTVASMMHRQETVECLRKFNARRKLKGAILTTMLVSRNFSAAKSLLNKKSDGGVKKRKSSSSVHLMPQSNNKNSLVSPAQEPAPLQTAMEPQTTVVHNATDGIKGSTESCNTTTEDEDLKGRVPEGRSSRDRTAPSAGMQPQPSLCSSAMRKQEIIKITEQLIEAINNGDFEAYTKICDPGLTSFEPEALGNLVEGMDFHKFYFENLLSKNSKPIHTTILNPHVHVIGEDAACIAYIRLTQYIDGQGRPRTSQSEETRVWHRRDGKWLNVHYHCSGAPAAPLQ
Summary of the method: as §1

DDR2 = target: T16, DDR2 (Homo sapiens, UniProt Q16832)
T16 construct: unspecified tag ("tagged kinases"); purchased Ambit (KinomeScan screening service)
Summary of the method: as §1

DMPK = target: T17, DMPK (Homo sapiens, UniProt Q09013)
T17 construct: unspecified tag ("tagged kinases"); purchased Ambit (KinomeScan screening service)
Summary of the method: as §1

CSNK1A1L = target: T18, CSNK1A1L (Homo sapiens, UniProt Q8N752)
T18 construct: purchased Ambit (KinomeScan screening service)
Summary of the method: as §1

PRKCD = target: T19, PRKCD (Homo sapiens, UniProt Q05655)
T19 construct: purchased Ambit (KinomeScan screening service)
T19 sequence (Q05655 whole entry): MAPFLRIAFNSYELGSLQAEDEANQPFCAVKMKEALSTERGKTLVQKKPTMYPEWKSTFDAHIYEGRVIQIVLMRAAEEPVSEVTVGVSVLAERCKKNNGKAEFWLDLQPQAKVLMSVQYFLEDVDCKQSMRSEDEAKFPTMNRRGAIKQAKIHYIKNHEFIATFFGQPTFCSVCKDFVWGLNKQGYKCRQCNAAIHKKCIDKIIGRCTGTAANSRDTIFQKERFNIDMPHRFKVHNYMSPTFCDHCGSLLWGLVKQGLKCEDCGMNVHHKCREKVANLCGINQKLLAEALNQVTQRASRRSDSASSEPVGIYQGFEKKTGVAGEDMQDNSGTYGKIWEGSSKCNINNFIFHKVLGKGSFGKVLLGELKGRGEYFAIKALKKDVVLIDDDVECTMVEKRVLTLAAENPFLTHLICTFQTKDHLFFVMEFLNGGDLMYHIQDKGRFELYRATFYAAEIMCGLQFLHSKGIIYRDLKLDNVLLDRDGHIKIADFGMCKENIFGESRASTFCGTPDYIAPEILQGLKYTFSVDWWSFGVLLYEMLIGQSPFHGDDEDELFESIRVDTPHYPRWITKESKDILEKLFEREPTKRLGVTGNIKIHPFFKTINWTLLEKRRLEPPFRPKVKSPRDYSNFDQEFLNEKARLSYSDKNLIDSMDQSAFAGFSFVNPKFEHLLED
Summary of the method: as §1

EGFR(G719C) = target: T20, EGFR(G719C) (Homo sapiens, UniProt P00533, G719C)
T20 construct: unspecified tag; purchased Ambit (KinomeScan screening service)
Summary of the method: as §1

RET = target: T21, RET (Homo sapiens, UniProt P07949)
T21 construct: tag (kind not specified); purchased Ambit (KinomeScan screening service)
Summary of the method: as §1

CAMKK1 = target: T22, CAMKK1 (Homo sapiens, UniProt Q8N5S9)
T22 construct: purchased Ambit (KinomeScan screening)
Summary of the method: as §1

PRKCH = target: T23, PRKCH (Homo sapiens, UniProt P24723)
T23 construct: purchased Ambit (KinomeScan screening service)
T23 sequence (P24723 whole entry): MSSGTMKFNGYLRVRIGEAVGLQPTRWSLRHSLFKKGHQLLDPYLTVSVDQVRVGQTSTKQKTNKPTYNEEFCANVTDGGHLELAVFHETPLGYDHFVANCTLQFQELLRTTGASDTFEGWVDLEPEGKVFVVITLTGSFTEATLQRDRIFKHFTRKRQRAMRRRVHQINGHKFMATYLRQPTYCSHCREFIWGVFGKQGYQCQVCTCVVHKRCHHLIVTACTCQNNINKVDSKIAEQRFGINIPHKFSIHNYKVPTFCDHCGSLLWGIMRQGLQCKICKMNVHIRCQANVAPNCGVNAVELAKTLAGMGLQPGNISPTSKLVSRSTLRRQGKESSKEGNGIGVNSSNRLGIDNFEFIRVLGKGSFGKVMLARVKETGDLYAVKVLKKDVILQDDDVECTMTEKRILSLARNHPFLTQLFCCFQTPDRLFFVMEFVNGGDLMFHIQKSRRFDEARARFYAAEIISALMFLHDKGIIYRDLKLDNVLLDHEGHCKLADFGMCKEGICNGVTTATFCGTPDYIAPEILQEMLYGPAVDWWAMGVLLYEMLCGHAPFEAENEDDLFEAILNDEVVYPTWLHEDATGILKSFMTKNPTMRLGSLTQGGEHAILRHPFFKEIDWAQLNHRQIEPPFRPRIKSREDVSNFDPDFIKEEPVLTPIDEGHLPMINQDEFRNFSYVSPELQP
Summary of the method: as §1

p38-β = target: T24, p38-β (Homo sapiens, UniProt Q15759)
T24 construct: purchased Ambit (KinomeScan screening service)
Summary of the method: as §1

CIT = target: T25, CIT (Homo sapiens, UniProt O14578)
T25 construct: purchased Ambit (KinomeScan screening service)
Summary of the method: as §1

PAK1 = target: T26, PAK1 (Homo sapiens, UniProt Q13153)
T26 construct: purchased Ambit (KinomeScan screening service)
Summary of the method: as §1

JNK3 = target: T27, JNK3 (Homo sapiens, UniProt P53779)
T27 construct: purchased Ambit (KinomeScan screening)
Summary of the method: as §1

GSK3B = target: T28, GSK3B (Homo sapiens, UniProt P49841)
T28 construct: unspecified tag ('tagged kinases'); purchased Ambit (KinomeScan screening service)
Summary of the method: as §1

ACVRL1 = target: T29, ACVRL1 (Homo sapiens, UniProt P37023)
T29 construct: purchased Ambit (KinomeScan screening)
Summary of the method: as §1

ERBB2 = target: T30, ERBB2 (Homo sapiens, UniProt P04626)
T30 construct: purchased Ambit (KinomeScan screening service)
Summary of the method: as §1

PIM1 = target: T31, PIM1 (Homo sapiens, UniProt P11309)
T31 construct: unspecified tag; purchased Ambit (KinomeScan screening panel)
Summary of the method: as §1

JAK1(JH2domain) = target: T32, JAK1(JH2domain) (Homo sapiens, UniProt P23458)
T32 construct: JAK1(JH2domain); purchased Ambit (KinomeScan screening)
T32 sequence (P23458 583-855 limits assumed): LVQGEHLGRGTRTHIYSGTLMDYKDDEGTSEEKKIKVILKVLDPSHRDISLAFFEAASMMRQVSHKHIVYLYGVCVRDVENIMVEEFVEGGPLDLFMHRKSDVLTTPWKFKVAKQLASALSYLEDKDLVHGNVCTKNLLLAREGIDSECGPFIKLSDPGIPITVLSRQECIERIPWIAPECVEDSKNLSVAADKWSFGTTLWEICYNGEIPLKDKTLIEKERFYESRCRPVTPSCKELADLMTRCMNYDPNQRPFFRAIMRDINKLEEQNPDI
Summary of the method: as §1

INSRR = target: T33, INSRR (Homo sapiens, UniProt P14616)
T33 construct: Ambit (KinomeScan screening)
Summary of the method: as §1

JAK2(JH1domain) = target: T34, JAK2(JH1domain) (Homo sapiens, UniProt O60674)
T34 construct: JAK2(JH1domain); purchased Ambit (KinomeScan screening)
T34 sequence (O60674 849-1124 limits assumed): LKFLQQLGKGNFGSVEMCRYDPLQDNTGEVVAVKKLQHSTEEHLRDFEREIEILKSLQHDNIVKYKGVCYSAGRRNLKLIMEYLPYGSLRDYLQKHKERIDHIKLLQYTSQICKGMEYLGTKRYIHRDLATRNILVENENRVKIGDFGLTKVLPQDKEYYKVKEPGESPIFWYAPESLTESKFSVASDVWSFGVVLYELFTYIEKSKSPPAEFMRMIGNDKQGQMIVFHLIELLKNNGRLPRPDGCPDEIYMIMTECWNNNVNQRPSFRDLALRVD
Summary of the method: as §1

PLK1 = target: T35, PLK1 (Homo sapiens, UniProt P53350)
T35 construct: purchased Ambit (KinomeScan screening service)
Summary of the method: as §1

PLK3 = target: T36, PLK3 (Homo sapiens, UniProt Q9H4B4)
T36 construct: purchased Ambit (KinomeScan screening service)
Summary of the method: as §1

Measured: Percent of Control Binding

Cc1ccccc1-n1c(C(C)Nc2nc(N)nc3nc[nH]c23)nc2cccc(C)c2c1=O (stereo not drawn) [CAL-130]
100%: all assays above
